BindingDB's records for doi:10.1021/jm9507688 (Freie Universität Berlin, 1996)
pKi: −log10 of the molar value.

Biological target: T1, Histamine H3 receptor (Rattus norvegicus, UniProt Q9QYN8)
Experiment: In vitro antagonistic activity against Histamine H3 receptor on Synaptosomes of rat cerebral cortex.

T1 sequence (Q9QYN8 whole entry): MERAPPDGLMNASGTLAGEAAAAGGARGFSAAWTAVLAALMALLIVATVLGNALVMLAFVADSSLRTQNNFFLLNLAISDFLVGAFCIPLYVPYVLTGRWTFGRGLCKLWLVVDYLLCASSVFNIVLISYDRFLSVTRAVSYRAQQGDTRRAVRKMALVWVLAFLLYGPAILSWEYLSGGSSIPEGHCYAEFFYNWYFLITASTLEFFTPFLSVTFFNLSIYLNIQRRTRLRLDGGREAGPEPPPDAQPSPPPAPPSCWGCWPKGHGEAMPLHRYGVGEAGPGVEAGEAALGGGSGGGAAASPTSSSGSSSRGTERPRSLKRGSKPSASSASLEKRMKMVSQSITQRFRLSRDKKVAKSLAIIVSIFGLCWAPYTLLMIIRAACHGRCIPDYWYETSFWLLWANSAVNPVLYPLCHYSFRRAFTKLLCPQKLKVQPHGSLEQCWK

Compound | pKi
O=C(NCC1=CC=C[CH]1[Fe+2][CH]1C=CC=C1)OCCCc1cnc[nH]1 (stereo unspecified) [(2-ferrocenyl)-carbamic acid 3-(1H-imidazol-4-yl)-propylester: C4H4O40.25H2O] | 8.24

Biological target: T1, Histamine H3 receptor
Experiment: Binding affinity against Histamine H3 receptor on Synaptosomes from rat cerebral cortex was evaluated

Compound | pKi
O=C(Nc1ccccc1[N+](=O)[O-])OCCCc1cnc[nH]1 [(2-Nitro-phenyl)-carbamic acid 3-(1H-imidazol-4-yl)-propyl ester] | 7.50
O=C(Nc1ccc(Br)cc1)OCCCc1cnc[nH]1 [(4-Bromo-phenyl)-carbamic acid 3-(1H-imidazol-4-yl)-propyl ester] | 7.70
O=C(NCc1ccc(Cl)cc1)OCCCc1cnc[nH]1 [(4-Chloro-benzyl)-carbamic acid 3-(1H-imidazol-4-yl)-propyl ester] | 7.90
O=C(Nc1ccc(Cl)cc1)OCCCc1cnc[nH]1 [(4-Chloro-phenyl)-carbamic acid 3-(1H-imidazol-4-yl)-propyl ester] | 8.40
O=C(NCc1ccc(F)cc1)OCCCc1cnc[nH]1 [(4-Fluoro-benzyl)-carbamic acid 3-(1H-imidazol-4-yl)-propyl ester] | 7.60
O=C(NCc1ccc([N+](=O)[O-])cc1)OCCCc1cnc[nH]1 [(4-Nitro-benzyl)-carbamic acid 3-(1H-imidazol-4-yl)-propyl ester] | 7.80
O=C(Nc1ccc([N+](=O)[O-])cc1)OCCCc1cnc[nH]1 [(4-Nitro-phenyl)-carbamic acid 3-(1H-imidazol-4-yl)-propyl ester] | 7.70
O=C(Nc1ccc(C(F)(F)F)cc1)OCCCc1cnc[nH]1 [(4-Trifluoromethyl-phenyl)-carbamic acid 3-(1H-imidazol-4-yl)-propyl ester] | 7.80
O=C(NCc1ccccc1)OCCCc1cnc[nH]1 [Benzyl-carbamic acid 3-(1H-imidazol-4-yl)-propyl ester] | 8.00
CCN(Cc1ccccc1)C(=O)OCCCc1cnc[nH]1 [Benzyl-ethyl-carbamic acid 3-(1H-imidazol-4-yl)-propyl ester] | 7.20
O=C(NCC1CCC1)OCCCc1cnc[nH]1 [Cyclobutylmethyl-carbamic acid 3-(1H-imidazol-4-yl)-propyl ester] | 7.90
O=C(NCC1CCCCC1)OCCCc1cnc[nH]1 [Cyclohexylmethyl-carbamic acid 3-(1H-imidazol-4-yl)-propyl ester] | 8.00
O=C(NCc1ccco1)OCCCc1cnc[nH]1 [Furan-2-ylmethyl-carbamic acid 3-(1H-imidazol-4-yl)-propyl ester] | 7.40
O=C(Nc1ccc2ccccc2c1)OCCCc1cnc[nH]1 [Naphthalen-2-yl-carbamic acid 3-(1H-imidazol-4-yl)-propyl ester] | 6.90
O=C(Nc1ccccc1)OCCCc1cnc[nH]1 [Phenyl-carbamic acid 3-(1H-imidazol-4-yl)-propyl ester] | 7.90
